Where a name gives a salt, the structure may show the parent alone.
Legend:
[1] = test system: maximal electroshock-induced seizures (MES); assay: Maximum electroshock seizure test (MES), oral administration to mice; assay type: in vivo; conditions: Mus musculus, po, 30 minutes before the test, dose protecting 50% of animals
Text: The compounds of the present invention may be tested for in vivo anticonvulsant activity after i.v., p.o. or i.p. injection using a number of anticonvulsant tests in mice, including the maximum electroshock seizure test (MES). Maximum electroshock seizures were induced in male NSA mice weighing between 15-20 g and male Sprague-Dawley rats weighing between 200-225 g by application of current (50 mA, 60 pulses/sec, 0.8 msec pulse width, 1 sec duration, D.C., mice; 99 mA, 125 pulses/sec, 0.8 msec pulse width, 2 sec duration, D.C., rats) using a Ugo Basile ECT device (Model 7801). Mice were restrained by gripping the loose skin on their dorsal surface and saline-coated corneal electrodes were held lightly against the two corneae. Rats were allowed free movement on the bench top and ear-clip electrodes were used. […] A tonic seizure was defined as a hindlimb extension in excess of 90 degrees from the plane of the body. Results were treated in a quantal manner.
The ability of 3-[4-(2,4-difluorophenoxy)phenyl]-1H-pyrazole-1-carboxamide to block maximal electroshock-induced seizures (MES) was determined as described earlier.
3-[4-(2,4-Difluorophenoxy)phenyl]-1H-pyrazole-1-carboxamide was administered p.o. to mice 30 minutes before the test procedure.
The following compounds in Table 1 were tested in MES as described for 3-[4-(2,4-difluorophenoxy)phenyl]-1H-pyrazole-1-carboxamide: […]

[2] = target: rBIIA isoform of Na+ channels (Rattus norvegicus, UniProt P04775); assay: Electrophysiological Assay 2: whole-cell patch-clamp of Na+ currents in HEK-293 cells expressing rBIIA; assay type: cell-based; conditions: HEK-293 cells stably expressing rBIIA; concentration that produces half maximal inhibition
Method: Cell preparation: HEK-293 (NaIIA-B2) cell line stably expressing the rBIIA isoform of Na^+ channels was established in-house. The cells were cultured using standard techniques, as described previously (Verdoorn, T. A, et al., Neuron 4:919-928 (1990)). For electrophysiology, cells were plated onto poly-D-lysine pre-coated Cellware 35 mm Petri dishes (BIOCOAT, Becton Dickinson) at a density of ˜10^4 cells/dish on the day of re-seeding from confluent cultures. Our experience has been that cells are suitable for recordings for 2-3 days after plating.
Patch-clamp recordings of voltage-sensitive Na^+ currents. Whole-cell voltage-clamp recordings were made using conventional patch-clamp techniques (Hamill et al., Pfluegers Arch. 391:85-100 (1981)) with an Axopatch 200A amplifier (Axon Instruments, Foster City, Calif.). The recording chamber was continuously superfused with the external solution (150 mM NaCl, 5.4 mM KCl, 1.8 mM CaCl2, 1 mM MgCl2, 10 mM HEPES, 10 mM glucose, pH7.4 adjusted with NaOH, osmolality ˜320 mmol/kg) at a speed of about 1 mL/min. Recording pipettes were pulled from the thick-walled capillaries (WPI, Sarasota, Fla.) and fire-polished. The pipette resistances ranged from 1 to 3 MΩ when the pipettes were filled with internal solution containing (in mM): 130 CsF, 20 NaCl, 2 MgCl2, 10 EGTA, 10 HEPES, pH adjusted to 7.4 with CsOH, osmolality ˜310 mmol/kg. Drugs and intervening wash-outs were applied through a linear array of flow pipes (Drummond Microcaps, 2 μL, 64-mm length). Compounds are dissolved in dimethylsulfoxide (DMSO) to make a 30 mM stock solution, which was subsequently diluted into the external solution to give final concentrations of 0.1-100 μM. At the highest (1%) concentration, DMSO inhibited the size of Na^+ current only slightly. Currents were recorded at room temperature (22-25° C.), filtered at 3 kHz with an active 8-pole Bessel filter (Frequency Devices, Haverhill, Mass.), digitized at 10-50 μs intervals, and stored using Digidata 1200 analog/digital interface with Pclamp6/Clampex software (Axon Instruments). Series resistance was cancelled typically by ˜75% when necessary.
The following voltage pulse protocols were used to assess the potency and kinetics of inhibition of the Na^+ channels by the compounds (FIG. 1). [drawing 33]
FIG. 1. Voltage pulse protocols. A. IV-curves. C. Steady-state inactivation. B. Repriming kinetics. D. Time course of binding.
Current-voltage relationship (IV-curve), protocol A, was used to report the voltage at which the maximal inward Na^+ current is achieved. This voltage was used throughout the experiment as testing voltage, Vt. The steady-state inactivation (or, availability) curve, protocol C, was used to get the voltage at which almost complete (≧95%) inactivation of Na^+ channels occurs; it served as voltage for conditioning prepulse, Vc, throughout the experiment. Protocol B reports how fast the channels recover from inactivation at hyperpolarized voltages. This permitted us to set up the duration of the hyperpolarization gap which is used in measurement of the kinetics of binding of compounds to inactivated Na^+ channels (protocol D). Channel repriming under control conditions was fast (≧90% recovery during first 5-10 ms). If a drug substantially retards the repriming process then it becomes possible (protocol D) to accurately measure the kinetics of binding of the inhibitor to inactivated channels as well as the steady-state affinity (k+ and Ki). To estimate k+ values the reduction in peak currents in successive trials with varying pre-pulse duration was plotted as a function of pre-pulse duration and the time constant (τ) measured by mono-exponential fit. A plot of 1/τ as a function of antagonist concentration then allowed calculating of the macroscopic binding rates of the antagonists. To determine Ki values the partial inhibition curves measured by fractional responses in steady-state were fitted with the logistic equation: […]

[3] = target: T1, hSkM1 isoform of Na+ channels (Homo sapiens, UniProt P35499); assay: Electrophysiological Assay 1: whole-cell patch-clamp of Na+ currents in HEK-293 cells expressing hSkM1; assay type: cell-based; conditions: HEK-293 cells stably expressing hSkM1; concentration that produces half maximal inhibition
T1 construct: expressed in transfected cells
Method: Cell preparation: HEK-293 cells stably expressing the hSkM1 isoform of Na^+ channels (generous gift from Dr. A. L. George, Vanderbilt University Medical School) were cultured using standard techniques, as described previously (Verdoorn, T. A, et al., Neuron 4:919-928 (1990)). For electrophysiology, cells were plated onto 35 mm Petri dishes (pre-coated with poly-D-lysine) at a density of 1:40 on the day of re-seeding from confluent cultures. Our experience has been that cells are suitable for recordings for 2-3 days after plating.
Patch-clamp recordings of voltage-sensitive Na^+ currents: Whole-cell voltage-clamp recordings were made using conventional patch-clamp techniques (Hamill et al., Pfluegers Arch. 391:85-100 (1981)) with an Axopatch 200A amplifier (Axon Instruments, Foster City, Calif.). […] The recording chamber was continuously superfused with the external solution (150 mM NaCl, 5.4 mM KCl, 1.8 mM CaCl2, 1 mM MgCl2, 10 mM HEPES, 10 mM glucose, pH 7.4 (NaOH)) at a speed of about 1 mL/min. Recording pipettes were pulled from thick-walled capillaries (WPI, Sarasota, Fla.) and fire-polished. The pipette resistances ranged from 1 to 3 MΩ when the pipettes were filled with internal solution containing (in mM): 110 CsF, 10 NaCl, 5 MgCl2, 11 EGTA, 10 HEPES, pH adjusted to 7.4 with CsOH. Osmolality was set with a difference of 15-20 mmol/kg between external and internal solutions (lower inside the cell). Drugs and intervening wash-outs were applied through a linear array of flow pipes (Drummond Microcaps, 2 μL, 64-mm length). Compounds are dissolved in dimethylsulfoxide (DMSO) to make a 30 mM stock solution, which was subsequently diluted into the external solution to give final concentrations of 0.1-100 μM. At the highest (1%) concentration, DMSO inhibited the size of Na^+ current only slightly. Currents were recorded at room temperature (22-25° C.), filtered at 5 kHz with an active 8-pole Bessel filter (Frequency Devices, Haverhill, Mass.), digitized at 10-50 μs intervals, and stored using Digidata 1200 analog/digital interface with Pclamp6/Clampex software (Axon Instruments). Series resistance was cancelled typically by ˜75% when necessary. The inhibitory potency of drugs was assessed by measuring reductions in the peak amplitude of Na^+ currents induced by increasing concentrations of compounds tested. Na^+ currents were elicited by stepping membrane voltage from holding potentials over the range −100 mV to −50 mV, to a pulse potential of −10 mV. The test pulse duration was 5-10 msec, repeated at a frequency≦1 Hz. Concentration-inhibition curves were fitted with equation 1:
I/Icontrol=1/(1+([compound]/IC50)) Eq. 1
where Icontrol is the maximal Na^+ current in the absence of antagonist, [compound] is the drug concentration, and IC50 is the concentration of compound that produces half maximal inhibition.
The apparent antagonist dissociation constant (Kd) of this compound for inactivated sodium channels is ˜8 nM.
The Ki (the concentration of a compound that produces half maximal inhibition) value for 3-[4-(4-fluorophenoxy)phenyl]-1H-pyrazole-1-carboxamide and other tested compounds are presented in Table 2.

T1 sequence (P35499 whole entry, canonical isoform): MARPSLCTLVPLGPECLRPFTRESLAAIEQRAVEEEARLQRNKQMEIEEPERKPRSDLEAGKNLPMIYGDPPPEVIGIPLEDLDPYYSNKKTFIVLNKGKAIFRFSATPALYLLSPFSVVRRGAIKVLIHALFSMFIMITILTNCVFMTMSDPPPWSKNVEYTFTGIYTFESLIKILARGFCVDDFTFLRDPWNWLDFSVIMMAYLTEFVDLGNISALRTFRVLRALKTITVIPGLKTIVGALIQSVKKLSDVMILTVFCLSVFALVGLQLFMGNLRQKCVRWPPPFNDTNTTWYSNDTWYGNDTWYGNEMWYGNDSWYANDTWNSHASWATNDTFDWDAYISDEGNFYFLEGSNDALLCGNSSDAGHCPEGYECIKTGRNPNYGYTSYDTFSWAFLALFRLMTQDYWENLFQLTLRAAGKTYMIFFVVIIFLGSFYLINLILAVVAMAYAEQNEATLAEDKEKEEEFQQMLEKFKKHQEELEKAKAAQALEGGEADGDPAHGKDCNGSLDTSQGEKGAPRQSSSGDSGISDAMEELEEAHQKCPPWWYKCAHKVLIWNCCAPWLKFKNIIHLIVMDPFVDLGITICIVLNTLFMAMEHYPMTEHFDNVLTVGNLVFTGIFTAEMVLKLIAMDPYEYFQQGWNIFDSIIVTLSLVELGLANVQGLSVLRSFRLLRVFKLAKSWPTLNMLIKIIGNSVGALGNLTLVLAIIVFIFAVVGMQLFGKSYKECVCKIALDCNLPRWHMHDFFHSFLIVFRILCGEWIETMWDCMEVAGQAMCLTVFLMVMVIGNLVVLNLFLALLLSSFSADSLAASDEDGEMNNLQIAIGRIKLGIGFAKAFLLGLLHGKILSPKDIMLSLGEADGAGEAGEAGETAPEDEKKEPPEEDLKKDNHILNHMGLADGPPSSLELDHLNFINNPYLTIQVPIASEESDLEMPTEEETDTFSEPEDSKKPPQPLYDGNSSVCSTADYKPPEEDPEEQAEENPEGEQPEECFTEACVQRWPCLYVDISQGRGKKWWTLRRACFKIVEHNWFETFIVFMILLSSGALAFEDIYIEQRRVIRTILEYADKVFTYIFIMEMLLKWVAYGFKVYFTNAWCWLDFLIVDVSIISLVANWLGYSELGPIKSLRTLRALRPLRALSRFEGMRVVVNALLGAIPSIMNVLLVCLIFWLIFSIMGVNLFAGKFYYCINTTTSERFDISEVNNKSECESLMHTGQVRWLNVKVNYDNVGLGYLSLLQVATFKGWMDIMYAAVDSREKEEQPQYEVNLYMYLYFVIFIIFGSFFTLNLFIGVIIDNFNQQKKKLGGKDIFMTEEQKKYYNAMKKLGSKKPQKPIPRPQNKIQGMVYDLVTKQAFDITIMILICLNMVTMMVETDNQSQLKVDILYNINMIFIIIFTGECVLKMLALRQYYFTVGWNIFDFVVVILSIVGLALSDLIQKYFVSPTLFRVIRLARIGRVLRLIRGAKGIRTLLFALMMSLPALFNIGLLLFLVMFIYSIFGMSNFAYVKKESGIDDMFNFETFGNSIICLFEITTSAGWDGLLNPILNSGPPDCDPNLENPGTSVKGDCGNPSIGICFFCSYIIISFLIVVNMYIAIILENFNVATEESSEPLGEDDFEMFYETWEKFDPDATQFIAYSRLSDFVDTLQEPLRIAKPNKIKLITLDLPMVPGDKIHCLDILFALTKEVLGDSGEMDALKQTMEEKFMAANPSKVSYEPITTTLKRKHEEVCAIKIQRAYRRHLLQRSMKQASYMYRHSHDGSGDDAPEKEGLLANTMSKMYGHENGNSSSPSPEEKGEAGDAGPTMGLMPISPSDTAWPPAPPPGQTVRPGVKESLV

| melting point [°C] | Ki [2] [nM] | Ki [3] [nM] | Compound | ED50 [1] [mg/kg] |
| --- | --- | --- | --- | --- |
| 192 to 195 |  |  | Fc1ccc(Oc2ccc(-c3c[nH]cn3)cc2)c(F)c1 (as salt: hydrochloride) [4-[4-(2,4-Difluorophenoxy)phenyl]-1H-imidazole] |  |
| 144 to 148 | 1030 |  | Fc1ccc(Oc2ccc(-c3c[nH]cn3)cc2)c(F)c1 [4-[4-(2,4-Difluorophenoxy)phenyl]-1H-imidazole] |  |
| 216 to 220 | 120 |  | Cl.Fc1cc(Cl)ccc1Oc1ccc(-c2c[nH]cn2)cc1 [4-[4-(4-Chloro-2-fluorophenoxy)phenyl]-1H-imidazole, hydrochloride salt] | 10 |

Further lines, the compound ahead of its results:

| Compound | melting point [°C] | Ki [2] [nM] | Ki [3] [nM] | ED50 [1] [mg/kg] |
| --- | --- | --- | --- | --- |
| O=C(Cn1nccc1-c1ccc(Oc2ccc(F)cc2)cc1)N1CCOCC1 [1-Morpholin-4-yl-2-{5-[4-(4-fluorophenoxy)phenyl]-pyrazol-1-yl}-ethanone] | 122 to 124 |  |  | 4.4 |
| Fc1ccc(Oc2ccc(-c3ccn(-c4ncccn4)n3)cc2)cc1 [2-{3-[4-(4-Fluorophenoxy)phenyl]-pyrazol-1-yl}-pyrimidine] |  | 420 |  | 4.7 |
| NC(=O)Cn1nccc1-c1ccc(Oc2ccc(F)cc2)cc1 [2-{5-[4-(4-Fluorophenoxy)phenyl]-pyrazol-1-yl}-acetamide] |  | 1560 |  | 2.6 |
| NC(=O)n1ccc(-c2ccc(Oc3ccc(Cl)cc3F)cc2)n1 [3-[4-(4-Chloro-2-fluorophenoxy)phenyl]-1H-pyrazole-1-carhoxamide] | 150 to 151 |  | 3 | 3.1 |
| NC(=O)n1ccc(-c2ccc(Oc3ccc(C(F)(F)F)cc3)cc2)n1 [3-[4-(4-Trifluoromethylphenoxy)phenyl]-1H-pyrazole-1-carboxamide] | 131 to 132 |  |  | 3.9 |
| Cl.FC(F)(F)c1ccc(Oc2ccc(-c3c[nH]cn3)cc2)cc1 [4-(4-(4-Trifluoromethylphenoxy)phenyl]-1H-imidazole, hydrochloride salt] | 230 to 232 |  |  | 7.7 |
| CSc1cc(-c2ccc(Oc3ccccc3)cc2)nn1C(N)=O [5-Methylthio-3-(4-phenoxyphenyl)-1H-pyrazole-1-carboxamide] | 142 to 144 |  | 80 |  |

— patent US6737418B2, “Aryl substituted pyrazoles, imidazoles, oxazoles, thiazoles and pyrroles, and the use thereof” (Euro-Celtique S.A., priority 1999, dated 2004)
